Reference: patent publication US8791132B2, “Compounds and methods for treatment of hypertension” (Medivation Technologies, Inc., priority 2011, dated 2014)
Values joined by “and” are separate entries in the source; they are usually repeats but may differ in a detail not shown here. Equal entries are not always repeated. Where two headings read alike, the source gives them in different places.

Assays:
[1] = target: T1, rat adrenergic α1B receptor (Rattus norvegicus, UniProt P15823); assay: Radioligand binding, adrenergic α1B ([3H]Prazosin); details: [3H]Prazosin
T1 construct: rat adrenergic α1B receptor obtained from Wistar Rat liver; from tissue; host or cells: Wistar rat liver
T1 sequence (P15823 1-515): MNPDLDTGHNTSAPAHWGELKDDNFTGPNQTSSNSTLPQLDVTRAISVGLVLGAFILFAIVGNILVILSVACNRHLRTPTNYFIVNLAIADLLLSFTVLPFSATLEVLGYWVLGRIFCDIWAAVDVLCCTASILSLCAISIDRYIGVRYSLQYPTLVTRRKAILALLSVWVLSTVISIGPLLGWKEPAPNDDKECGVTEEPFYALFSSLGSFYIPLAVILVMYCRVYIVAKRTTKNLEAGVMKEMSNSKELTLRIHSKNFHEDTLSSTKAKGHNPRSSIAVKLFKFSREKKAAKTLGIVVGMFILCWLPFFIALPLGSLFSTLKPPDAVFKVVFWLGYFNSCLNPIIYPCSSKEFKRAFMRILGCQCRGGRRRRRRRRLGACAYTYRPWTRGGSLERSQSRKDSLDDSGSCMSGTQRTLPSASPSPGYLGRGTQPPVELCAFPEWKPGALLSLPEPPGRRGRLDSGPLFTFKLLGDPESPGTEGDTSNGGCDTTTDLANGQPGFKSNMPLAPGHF
Outline: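 Specific binding, taken as total minus that remaining with 10 μM phentolamine, is measured after filtration and counting. Rat liver receptor preparation and 0.25 nM [3H]prazosin are incubated with compound in 50 mM Tris-HCl (pH 7.4, 0.5 mM EDTA) at 25° C for 60 min. Activity is reported as percent inhibition.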

[2] = target: T2, human recombinant adrenergic α1D receptor (Homo sapiens, UniProt P25100); assay: Radioligand binding, adrenergic α1D ([3H]Prazosin); details: [3H]Prazosin
T2 construct: expressed in transfected cells; host or cells: HEK-293
T2 sequence (P25100 1-572): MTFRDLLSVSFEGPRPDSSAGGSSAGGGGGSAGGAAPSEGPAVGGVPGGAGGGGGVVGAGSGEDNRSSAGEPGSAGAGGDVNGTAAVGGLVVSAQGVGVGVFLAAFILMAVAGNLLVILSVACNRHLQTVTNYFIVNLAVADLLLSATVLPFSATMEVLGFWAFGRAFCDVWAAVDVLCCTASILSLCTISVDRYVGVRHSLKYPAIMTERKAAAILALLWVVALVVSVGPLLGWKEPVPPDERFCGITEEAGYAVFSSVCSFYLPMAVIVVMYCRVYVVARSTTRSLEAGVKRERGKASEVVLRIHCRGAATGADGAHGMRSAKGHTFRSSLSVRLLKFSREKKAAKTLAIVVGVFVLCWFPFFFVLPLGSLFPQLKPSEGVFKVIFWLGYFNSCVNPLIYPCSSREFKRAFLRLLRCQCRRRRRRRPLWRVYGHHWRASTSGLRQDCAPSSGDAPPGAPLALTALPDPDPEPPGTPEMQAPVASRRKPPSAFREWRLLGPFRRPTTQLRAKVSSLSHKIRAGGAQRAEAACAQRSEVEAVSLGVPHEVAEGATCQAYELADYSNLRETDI
Method: Compounds were incubated with 0.6 nM [3H]Prazosin for 60 min at 25° C. Non-specific binding was estimated in the presence of 10 μM phentolamine. Receptor proteins were filtered and washed, the filters were then counted to determine [3H]Prazosin specifically bound. […] Biochemical assay results are presented as the percent inhibition of specific binding in Table B1.

[3] = target: T3, human recombinant adrenergic α2A receptor (Homo sapiens, UniProt P08913); assay: Radioligand binding, adrenergic α2A ([3H]MK-912); details: [3H]MK-912
T3 construct: expressed in transfected cells; host or cells: insect Sf9 cells
T3 sequence (P08913 1-465): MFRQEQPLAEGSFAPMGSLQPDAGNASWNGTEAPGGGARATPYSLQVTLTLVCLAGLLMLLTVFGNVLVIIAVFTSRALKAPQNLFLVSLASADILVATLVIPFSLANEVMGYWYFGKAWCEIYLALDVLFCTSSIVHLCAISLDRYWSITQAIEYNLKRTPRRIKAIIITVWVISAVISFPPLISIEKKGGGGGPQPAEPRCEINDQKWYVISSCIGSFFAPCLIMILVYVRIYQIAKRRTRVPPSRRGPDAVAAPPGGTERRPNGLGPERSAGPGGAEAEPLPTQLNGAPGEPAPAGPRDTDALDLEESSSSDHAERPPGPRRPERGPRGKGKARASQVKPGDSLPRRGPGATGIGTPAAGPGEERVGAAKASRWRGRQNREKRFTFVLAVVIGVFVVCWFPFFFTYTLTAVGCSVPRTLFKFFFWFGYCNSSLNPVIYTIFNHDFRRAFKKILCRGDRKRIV
Outline: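 Displacement of 1 nM [3H]MK-912 from receptor produced in insect Sf9 cells was measured after 60 min at 25 °C. Readout: percent inhibition of specific binding.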

[4] = target: T4, human recombinant adrenergic α2B receptor (Homo sapiens, UniProt P18089); assay: Radioligand binding, adrenergic α2B ([3H]Rauwolscine); details: for inhibition at 0.03 µM: compound at 0.03 μM; for Ki: read-out: Ki α2B
T4 construct: expressed in transfected cells; host or cells: CHO-K1
T4 sequence (P18089 1-450): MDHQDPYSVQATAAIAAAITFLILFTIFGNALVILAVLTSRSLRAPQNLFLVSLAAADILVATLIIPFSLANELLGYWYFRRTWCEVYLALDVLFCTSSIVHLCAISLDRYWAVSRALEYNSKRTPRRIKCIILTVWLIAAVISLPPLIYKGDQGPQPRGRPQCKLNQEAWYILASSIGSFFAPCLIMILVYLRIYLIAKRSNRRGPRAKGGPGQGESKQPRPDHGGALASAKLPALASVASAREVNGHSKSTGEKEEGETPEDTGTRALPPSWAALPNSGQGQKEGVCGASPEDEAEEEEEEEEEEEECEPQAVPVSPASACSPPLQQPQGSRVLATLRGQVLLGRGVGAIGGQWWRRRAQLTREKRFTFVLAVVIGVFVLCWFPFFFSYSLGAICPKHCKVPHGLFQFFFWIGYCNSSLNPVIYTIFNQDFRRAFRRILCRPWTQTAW
Outline: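 Values are percent inhibition of specific radioligand binding. The receptor, expressed in CHO-K1 cells, was exposed to 2.5 nM [3H]Rauwolscine at 25° C for 60 min, with 10 μM Prazosin marking non-specific binding.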

[5] = compound at 0.1 μM, repeat assays, each datapoint shown, read-out: Percentage inhibition of ligand binding, Adrenergic α1B
[6] = compound at 0.1 μM, repeat assays, each datapoint shown, read-out: Percentage inhibition of ligand binding, Adrenergic α1D
[7] = compound at 0.1 μM, repeat assays, each datapoint shown, read-out: Percentage inhibition of ligand binding, Adrenergic α2A
[8] = compound at 0.1 μM, [3H]Rauwolscine, repeat assays, each datapoint shown, read-out: Percentage inhibition of ligand binding, Adrenergic α2B
[9] = [3H]Rauwolscine, repeat assays, each datapoint shown, read-out: Percentage inhibition of ligand binding, Adrenergic α2B
[10] = compound at 0.1 μM, repeat assays, each datapoint shown, 0.1 µM
[11] = read-out: Percentage inhibition of ligand binding, Adrenergic α1B (0.1 μM), compound at 0.1 μM, repeat datapoints each shown
[12] = read-out: Percentage inhibition of ligand binding, Adrenergic α1D (0.1 μM), compound at 0.1 μM, repeat datapoints each shown
[13] = read-out: Percentage inhibition of ligand binding, Adrenergic α2A (0.1 μM), compound at 0.1 μM, repeat datapoints each shown
[14] = read-out: Percentage inhibition of ligand binding, Adrenergic α2B (0.1 μM), compound at 0.1 μM, [3H]Rauwolscine, repeat datapoints each shown
[15] = compound at 0.1 μM, repeat datapoints each shown, 0.1 µM

Row | Compound | inhibition at 0.1 µM [1, 5] [%] | inhibition at 0.1 µM [2, 6] [%] | inhibition at 0.1 µM [3, 7] [%] | inhibition at 0.1 µM [4, 8] [%] | other results
1 | CN1CCc2c(c3cccc(Cl)c3n2CC(C)(O)c2ccncc2)C1 (stereo not drawn) [compound 32] | 12 | 7 | 28 | 86 | 
2 | CN1CCc2c(c3cc(Cl)ccc3n2CCc2cccnc2)C1 [compound 60] | 65 | 35 | 26 | 93 | inhibition at 0.03 µM [4, 9]: 66%; Ki [4]: 5.84 nM
3 | Cc1ccc2c(c1)c1c(n2CCc2ccccn2)CCN(C)C1 [compound 84] | 69 | 36 | 27 | 84 | 
4 | Cc1ccc2c(c1)c1c(n2CCc2ccc(C(F)(F)F)nc2)CCN(C)C1 [compound 86] | 62 | 62 | 27 | 77 | 
5 | CN1CCc2c(c3cc(Cl)ccc3n2CCC(=O)OCC2CCCCC2)C1 [compound 87] | 5 | 24 | 14 | 66 | 
6 | CN1CCc2c(c3cc(Cl)ccc3n2CCC(=O)OC2CCCC2)C1 [compound 88] | 10 | 36 | 2 | 90 | 
7 | CCc1ccc(CCn2c3c(c4cc(C)ccc42)CN(C)CC3)cn1 [compound 89] | 79 | 68 | 23 |  | inhibition at 0.03 µM [4, 9]: 25%; Percentage inhibition of ligand binding, Adrenergic α2B ([4]; compound at 0.1 μM, [3H]Rauwolscine, repeat assays, each datapoint shown, 0.1 µM): 57% and 79%; Ki [4]: 32 nM
8 | Cc1ccc2c(c1)c1c(n2CC(C)(O)c2ccc(F)cc2)CCN(C)C1 (stereo not drawn) [compound 90] |  | 20 |  | 91 | Percentage inhibition of ligand binding, Adrenergic α1B [1, 10]: 57%; Percentage inhibition of ligand binding, Adrenergic α2A [3, 10]: 22%
9 | Cc1ccc2c(c1)c1c(n2CCc2cncc(Cl)c2)CCN(C)CC1 [compound 92] |  |  |  |  | inhibition at 0.1 µM [1, 11]: 77%; inhibition at 0.1 µM [2, 12]: 46%; inhibition at 0.1 µM [3, 13]: 30%; inhibition at 0.1 µM [4, 14]: 77%
10 | Cc1ccc(C(C)(O)Cn2c3c(c4cc(Cl)ccc42)CN(C)CC3)cn1 (stereo not drawn) [compound 93] |  |  |  |  | Percentage inhibition of ligand binding, Adrenergic α1B (0.1 μM) [1, 15]: 25%; inhibition at 0.1 µM [2, 12]: 6%; Percentage inhibition of ligand binding, Adrenergic α2A (0.1 μM) [3, 15]: 21%; inhibition at 0.1 µM [4, 14]: 87%
11 | Cc1ccc2c(c1)c1c(n2CC(=O)c2ccc(F)cc2)CCN(C)C1 [compound 94] |  |  |  |  | inhibition at 0.1 µM [1, 11]: 40%; inhibition at 0.1 µM [2, 12]: 10%; inhibition at 0.1 µM [3, 13]: 11%; inhibition at 0.1 µM [4, 14]: 66%
